Experimental data reported in patent publication US20220089578A1, “COMPOUNDS AS GLP-1R AGONISTS” (Terns Pharmaceuticals, Inc., priority 2020, published 2022).

Target: human GLP-1R (Homo sapiens, UniProt P43220)
Experiment: GLP-1R Cell Assay 1: cAMP Hunter CHO-K1 GLP1R Gs cell line, HitHunter cAMP assay
Assay type: cell-based
Settings: cAMP Hunter CHO-K1 GLP1R Gs cells, percent activity normalized to Exendin-4
In short: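 Luminescent enzyme-fragment-complementation immunoassay quantified cellular cAMP after 30-60 min compound exposure at 37 °C in HBSS/10 mM HEPES. Data from duplicate runs were normalised to Exendin-4 and fitted nonlinearly for EC50.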

Chain of human GLP-1R (P43220 24-463): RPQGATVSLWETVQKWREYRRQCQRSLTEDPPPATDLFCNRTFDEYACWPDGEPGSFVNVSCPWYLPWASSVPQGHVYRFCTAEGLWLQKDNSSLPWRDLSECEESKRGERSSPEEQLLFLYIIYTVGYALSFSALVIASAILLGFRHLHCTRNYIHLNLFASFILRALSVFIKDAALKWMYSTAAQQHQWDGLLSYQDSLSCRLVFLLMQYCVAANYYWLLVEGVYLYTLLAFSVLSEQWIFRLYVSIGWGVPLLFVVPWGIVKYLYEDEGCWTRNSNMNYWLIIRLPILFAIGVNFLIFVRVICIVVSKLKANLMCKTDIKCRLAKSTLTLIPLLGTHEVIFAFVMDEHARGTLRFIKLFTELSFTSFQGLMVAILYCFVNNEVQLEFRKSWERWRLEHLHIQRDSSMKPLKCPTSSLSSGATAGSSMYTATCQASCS

| Structure (SMILES) | EC50 (Table 3) | EC50 (Table 2) |
| --- | --- | --- |
| O=C(O)c1ccc2nc(CN3CCN(c4ccc5c(n4)N(Cc4ccccc4)CCO5)CC3)n(C[C@@H]3CCO3)c2c1 [Compound 149, (S)-2-((4-(4-benzyl-3,4-dihydro-2H-pyrido[3,2-b][1,4]oxazin-6-yl)piperazin-1-yl)methyl)-1-(oxetan-2-ylmethyl)-1H-benzo[d]imidazole-6-carboxylic acid/] | > 500 nM |  |
| C[C@@]1(c2cccc(OCc3ccc(C#N)cc3F)n2)CCN(Cc2nc3ccc(C(=O)O)cc3n2C[C@@H]2CCO2)C1 (single isomer, unassigned) [Compound 20-P1] |  | > 500 nM |
| N#Cc1ccc(Cn2ccc3ccc(N4CCN(Cc5nc6ccc(C(=O)O)cc6n5C[C@@H]5CCO5)CC4)nc32)c(F)c1 [Compound 29, (S)-2-((4-(1-(4-cyano-2-fluorobenzyl)-1H-pyrrolo[2,3-b]pyridin-6-yl)piperazin-1-yl)methyl)-1-(oxetan-2-ylmethyl)-1H-benzo[d]imidazole-6-carboxylic acid] |  | 16.1 nM |
| N#Cc1ccc(COc2cccc(C3CCN([C@@H]4CCCCn5c4nc4ccc(C(=O)O)cc45)CC3)n2)c(F)c1 [Compound 90, (R)-6-(4-(6-((4-cyano-2-fluorobenzyl)oxy)pyridin-2-yl)piperidin-1-yl)-7,8,9,10-tetrahydro-6H-benzo[4,5]imidazo[1,2-a]azepine-2-carboxylic acid] |  | > 500 nM |
| O=C(O)c1ccc2nc(CN3CCC(c4cccc(C5CCc6ccccc6C5)n4)CC3)n(C[C@@H]3CCO3)c2c1 (stereo partly drawn) [Compound 12, 1-((S)-oxetan-2-ylmethyl)-2-((4-(6-(1,2,3,4-tetrahydronaphthalen-2-yl)pyridin-2-yl)piperidin-1-yl)methyl)-1H-benzo[d]imidazole-6-carboxylic acid] |  | 124 nM |
| O=C(O)c1ccc2nc(CN3CCN(c4cccc(OC5(c6ccccc6)CCC5)n4)CC3)n(C[C@@H]3CCO3)c2c1 [Compound 51, (S)-1-(oxetan-2-ylmethyl)-2-((4-(6-(1-phenylcyclobutoxy)pyridin-2-yl)piperazin-1-yl)methyl)-1H-benzo[d]imidazole-6-carboxylic acid] |  | 348 nM |
| CCn1cncc1Cn1c(CN2CCC(c3cccc(OCc4nc5c(F)cc(C#N)cc5s4)n3)CC2)nc2ccc(C(=O)O)cc21 [Compound 164, 2-((4-(6-((6-cyano-4-fluorobenzo[d]thiazol-2-yl)methoxy)pyridin-2-yl)piperidin-1-yl)methyl)-1-((1-ethyl-1H-imidazol-5-yl)methyl)-1H-benzo[d]imidazole-6-carboxylic acid] | 0.0254 nM |  |
| O=C(O)c1ccc2nc(CN3CCN(c4ccc5cn(Cc6ccccc6)nc5n4)CC3)n(C[C@@H]3CCO3)c2c1 [Compound 31, (S)-2-((4-(2-benzyl-2H-pyrazolo[3,4-b]pyridin-6-yl)piperazin-1-yl)methyl)-1-(oxetan-2-ylmethyl)-1H-benzo[d]imidazole-6-carboxylic acid] |  | > 500 nM |
| CCn1cncc1Cn1c(CN2CCC3(c4cccc5c4OC(C)(c4ccc(Cl)cc4F)O5)CC3C2)nc2ccc(C(=O)O)cc21 (centres unmarked) [Compound 138, 2-((6-(2-(4-chloro-2-fluorophenyl)-2-methylbenzo[d][1,3]dioxol-4-yl)-3-azabicyclo[4.1.0]heptan-3-yl)methyl)-1-((1-ethyl-1H-imidazol-5-yl)methyl)-1H-benzo[d]imidazole-6-carboxylic acid] |  | 0.108 nM |
| CC(C)c1cn(C2CCN(Cc3nc4ccc(C(=O)O)cc4n3C[C@@H]3CCO3)CC2)nc1OCc1ccc(C#N)cc1F [Compound 118, (S)-2-((4-(3-((4-cyano-2-fluorobenzyl)oxy)-4-isopropyl-1H-pyrazol-1-yl)piperidin-1-yl)methyl)-1-(oxetan-2-ylmethyl)-1H-benzo[d]imidazole-6-carboxylic acid] |  | 185 nM |
| O=C(O)c1ccc2nc(CN3CCN(c4cccc(OCc5ccc6ccccc6n5)n4)CC3)n(C[C@@H]3CCO3)c2c1 [Compound 82, (S)-1-(oxetan-2-ylmethyl)-2-((4-(6-(quinolin-2-ylmethoxy)pyridin-2-yl)piperazin-1-yl)methyl)-1H-benzo[d]imidazole-6-carboxylic acid] |  | 2.78 nM |
| O=C(O)c1ccc2nc(CN3CCN(c4cccc(OCC5CCC6(CC5)COC6)n4)CC3)n(C[C@@H]3CCO3)c2c1 [Compound 46, (S)-2-((4-(6-((2-oxaspiro[3.5]nonan-7-yl)methoxy)pyridin-2-yl)piperazin-1-yl)methyl)-1-(oxetan-2-ylmethyl)-1H-benzo[d]imidazole-6-carboxylic acid] |  | > 500 nM |
| O=C(O)c1ccc2nc(CN3CCC(c4cccc(OCc5nc6ccccc6s5)n4)CC3)n(C[C@@H]3CCO3)c2c1 [Compound 14, (S)-2-((4-(6-(benzo[d]thiazol-2-ylmethoxy)pyridin-2-yl)piperidin-1-yl)methyl)-1-(oxetan-2-ylmethyl)-1H-benzo[d]imidazole-6-carboxylic acid] |  | 0.246 nM |
| O=C(O)c1ccc2nc(CN3CCN(c4cccc(OCc5ccccc5)n4)C(=O)C3)n(C[C@@H]3CCO3)c2c1 [Compound 19, (S)-2-((4-(6-(benzyloxy)pyridin-2-yl)-3-oxopiperazin-1-yl)methyl)-1-(oxetan-2-ylmethyl)-1H-benzo[d]imidazole-6-carboxylic acid] |  | 41.2 nM |
| C[C@@H]1c2ccc(C#N)cc2CCN1c1cccc(N2CCN(Cc3nc4ccc(C(=O)O)cc4n3C[C@@H]3CCO3)CC2)n1 [Compound 83] |  | 229 nM |
| O=C(O)c1ccc2nc(CN3CCN(c4cccc(OCc5ccncc5)n4)CC3)n(C[C@@H]3CCO3)c2c1 [Compound 42, (S)-1-(oxetan-2-ylmethyl)-2-((4-(6-(pyridin-4-ylmethoxy)pyridin-2-yl)piperazin-1-yl)methyl)-1H-benzo[d]imidazole-6-carboxylic acid] |  | 3.84 nM |
| N#Cc1ccc(COc2nn(C3CCN(Cc4nc5ccc(C(=O)O)cc5n4C[C@@H]4CCO4)CC3)cc2CO)c(F)c1 [Compound 136, (S)-2-((4-(3-((4-cyano-2-fluorobenzyl)oxy)-4-(hydroxymethyl)-1H-pyrazol-1-yl)piperidin-1-yl)methyl)-1-(oxetan-2-ylmethyl)-1H-benzo[d]imidazole-6-carboxylic acid] |  | 109 nM |
| O=C(O)c1ccc2nc(CN3CCN(c4cccc(OCC5CCC5)n4)CC3)n(C[C@@H]3CCO3)c2c1 [Compound 88, (S)-2-((4-(6-(cyclobutylmethoxy)pyridin-2-yl)piperazin-1-yl)methyl)-1-(oxetan-2-ylmethyl)-1H-benzo[d]imidazole-6-carboxylic acid] |  | 239 nM |
| O=C(O)c1ccc2nc(CN3CCN(c4cccc(OCc5nc6ccc(F)cc6s5)n4)CC3)n(C[C@@H]3CCO3)c2c1 [Compound 128, (S)-2-((4-(6-((6-fluorobenzo[d]thiazol-2-yl)methoxy)pyridin-2-yl)piperazin-1-yl)methyl)-1-(oxetan-2-ylmethyl)-1H-benzo[d]imidazole-6-carboxylic acid] |  | 0.246 nM |
| O=C(O)c1ccc2nc(CN3CCN(c4cccc(OCC5CC(F)(F)C5)n4)CC3)n(C[C@@H]3CCO3)c2c1 [Compound 50, (S)-2-((4-(6-((3,3-difluorocyclobutyl)methoxy)pyridin-2-yl)piperazin-1-yl)methyl)-1-(oxetan-2-ylmethyl)-1H-benzo[d]imidazole-6-carboxylic acid] |  | 202 nM |
| N#Cc1ccc2c(c1)CCN(c1ccn(C3CCN(Cc4nc5ccc(C(=O)O)cc5n4C[C@@H]4CCO4)CC3)n1)C2 [Compound 105, (S)-2-((4-(3-(6-cyano-3,4-dihydroisoquinolin-2(1H)-yl)-1H-pyrazol-1-yl)piperidin-1-yl)methyl)-1-(oxetan-2-ylmethyl)-1H-benzo[d]imidazole-6-carboxylic acid] |  | > 500 nM |
| N#Cc1ccc2c(c1)CCCN(c1cccc(N3CCN(Cc4nc5ccc(C(=O)O)cc5n4C[C@@H]4CCO4)CC3)n1)C2 [Compound 74, (S)-2-((4-(6-(7-cyano-1,3,4,5-tetrahydro-2H-benzo[c]azepin-2-yl)pyridin-2-yl)piperazin-1-yl)methyl)-1-(oxetan-2-ylmethyl)-1H-benzo[d]imidazole-6-carboxylic acid] |  | 141 nM |
| N#Cc1ccc(CN2CCCc3ccc(C4CCN(Cc5nc6ccc(C(=O)O)cc6n5C[C@@H]5CCO5)CC4)nc32)c(F)c1 [Compound 143, (S)-2-((4-(8-(4-cyano-2-fluorobenzyl)-5,6,7,8-tetrahydro-1,8-naphthyridin-2-yl)piperidin-1-yl)methyl)-1-(oxetan-2-ylmethyl)-1H-benzo[d]imidazole-6-carboxylic acid] | > 500 nM |  |
| O=C(O)c1ccc2nc(CN3CCN(c4cccc(OCC5CC6(COC6)C5)n4)CC3)n(C[C@@H]3CCO3)c2c1 [Compound 43, (S)-2-((4-(6-((2-oxaspiro[3.3]heptan-6-yl)methoxy)pyridin-2-yl)piperazin-1-yl)methyl)-1-(oxetan-2-ylmethyl)-1H-benzo[d]imidazole-6-carboxylic acid] |  | > 500 nM |
| N#Cc1ccc(COc2nn(C3CCN(Cc4nc5ccc(C(=O)O)cc5n4C[C@@H]4CCO4)CC3)cc2C(F)F)c(F)c1 [Compound 135, (S)-2-((4-(3-((4-cyano-2-fluorobenzyl)oxy)-4-(difluoromethyl)-1H-pyrazol-1-yl)piperidin-1-yl)methyl)-1-(oxetan-2-ylmethyl)-1H-benzo[d]imidazole-6-carboxylic acid] |  | 4.88 nM |
| O=C(O)c1ccc2nc(CN3CCN(c4cccc(OCC5CCCCC5)n4)CC3)n(C[C@@H]3CCO3)c2c1 [Compound 1, (S)-2-((4-(6-(cyclohexylmethoxy)pyridin-2-yl)piperazin-1-yl)methyl)-1-(oxetan-2-ylmethyl)-1H-benzo[d]imidazole-6-carboxylic acid] |  | 42.5 nM |
